Laboratory results from ChEMBL document CHEMBL4823315 (Bioorg Med Chem Lett, 2021).

What was measured:
[1] = Inhibition of p70S6K (unknown origin); set-up: species or system Homo sapiens
[2] = Inhibition of Akt/p70S6K in human MDA-MB-436 cells assessed as inhibition of S6 phosphorylation; format: cell-based
[3] = Thermodynamic solubility of the compound at pH 1.2; format: physicochemical; conditions: buffer, read-out: Therm_solubility
Cytochrome P450 2D6 = Cytochrome P450 2D6 (Homo sapiens, UniProt P10635); test: Inhibition of CYP2D6 (unknown origin); format: ADME
Chain of Cytochrome P450 2D6 (P10635 whole entry): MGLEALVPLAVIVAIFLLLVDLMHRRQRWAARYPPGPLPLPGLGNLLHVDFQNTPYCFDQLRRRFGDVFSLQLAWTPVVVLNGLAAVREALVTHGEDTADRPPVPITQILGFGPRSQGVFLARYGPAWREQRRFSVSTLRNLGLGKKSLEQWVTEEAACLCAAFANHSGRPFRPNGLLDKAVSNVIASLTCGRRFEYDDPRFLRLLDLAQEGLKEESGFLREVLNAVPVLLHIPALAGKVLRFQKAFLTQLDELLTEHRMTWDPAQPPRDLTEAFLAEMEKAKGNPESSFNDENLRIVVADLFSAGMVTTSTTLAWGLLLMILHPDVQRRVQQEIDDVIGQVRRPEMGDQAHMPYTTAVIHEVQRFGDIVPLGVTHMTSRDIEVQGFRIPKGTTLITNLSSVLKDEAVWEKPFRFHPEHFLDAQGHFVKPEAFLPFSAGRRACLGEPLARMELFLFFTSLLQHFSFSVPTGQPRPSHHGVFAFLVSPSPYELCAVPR

[4] = Protein binding in mouse plasma assessed as unbound fraction; format: ADME, cell-free
[5] = Protein binding in human plasma assessed as unbound fraction; format: ADME, cell-free
[6] = Apparent permeability across apical to basal side in human Caco-2 cells; format: ADME, cell-based
Cytochrome P450 2B6 = target: T1, Cytochrome P450 2B6 (Homo sapiens, UniProt P20813); test: Inhibition of CYP2B6 (unknown origin); format: ADME
T1 sequence (P20813 whole entry): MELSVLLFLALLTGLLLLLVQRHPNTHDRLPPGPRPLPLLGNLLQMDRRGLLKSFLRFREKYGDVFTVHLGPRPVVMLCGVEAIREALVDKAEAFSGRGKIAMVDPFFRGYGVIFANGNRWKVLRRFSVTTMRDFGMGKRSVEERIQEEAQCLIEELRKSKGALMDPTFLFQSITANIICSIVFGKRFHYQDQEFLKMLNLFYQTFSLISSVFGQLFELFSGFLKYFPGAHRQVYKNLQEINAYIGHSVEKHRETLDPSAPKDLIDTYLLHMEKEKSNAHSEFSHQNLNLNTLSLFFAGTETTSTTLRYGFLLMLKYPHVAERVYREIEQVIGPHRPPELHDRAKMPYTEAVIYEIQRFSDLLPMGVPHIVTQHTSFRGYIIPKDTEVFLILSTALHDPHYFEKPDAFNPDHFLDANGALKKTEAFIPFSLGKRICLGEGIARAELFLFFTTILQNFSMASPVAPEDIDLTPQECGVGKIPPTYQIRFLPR

[7] = Half life in CD-1 mouse at 0.5 mg/kg, po or 0.2 mg/kg, iv; format: ADME, organism-based; conditions: in vivo
[8] = Efflux ratio of apparent permeability in human Caco-2 cells; format: ADME, cell-based
[9] = Thermodynamic solubility of the compound at pH 7.4; format: physicochemical; conditions: buffer, read-out: Therm_solubility
[10] = target: Serine/threonine-protein kinase AKT (Homo sapiens, UniProt P31751+Q9Y243+P31749); test: Inhibition of Akt (unknown origin); format: protein assay
Cytochrome P450 2C8 = target: T2, Cytochrome P450 2C8 (Homo sapiens, UniProt P10632); test: Inhibition of CYP2C8 (unknown origin); format: ADME
T2 sequence (P10632 whole entry): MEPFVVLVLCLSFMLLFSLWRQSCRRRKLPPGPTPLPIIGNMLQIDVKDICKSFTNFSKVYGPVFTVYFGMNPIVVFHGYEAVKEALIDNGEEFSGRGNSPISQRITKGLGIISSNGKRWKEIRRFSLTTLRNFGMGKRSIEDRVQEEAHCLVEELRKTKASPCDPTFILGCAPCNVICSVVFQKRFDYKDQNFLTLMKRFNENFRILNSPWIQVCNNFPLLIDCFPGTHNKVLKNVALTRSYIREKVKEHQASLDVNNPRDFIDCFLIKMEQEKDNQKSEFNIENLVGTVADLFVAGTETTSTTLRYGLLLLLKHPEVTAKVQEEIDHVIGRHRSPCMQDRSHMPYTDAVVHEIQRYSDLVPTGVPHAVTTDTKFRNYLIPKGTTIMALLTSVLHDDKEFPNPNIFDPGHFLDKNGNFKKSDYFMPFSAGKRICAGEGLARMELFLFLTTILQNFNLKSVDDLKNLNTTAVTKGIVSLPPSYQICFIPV

[11] = AUC in CD-1 mouse at 0.5 mg/kg, po; format: ADME, organism-based; set-up: dose 0.5 mg/kg; conditions: in vivo
[12] = AUC in CD-1 mouse at 0.2 mg/kg, iv; format: ADME, organism-based; set-up: dose 0.2 mg/kg; conditions: in vivo
[13] = Volume of distribution in CD-1 mouse at 0.5 mg/kg, po or 0.2 […], iv; format: ADME, organism-based; conditions: in vivo
Cytochrome P450 3A4 = Cytochrome P450 3A4 (Homo sapiens, UniProt P08684); test: Inhibition of CYP3A4 (unknown origin); format: ADME
Chain of Cytochrome P450 3A4 (P08684 whole entry): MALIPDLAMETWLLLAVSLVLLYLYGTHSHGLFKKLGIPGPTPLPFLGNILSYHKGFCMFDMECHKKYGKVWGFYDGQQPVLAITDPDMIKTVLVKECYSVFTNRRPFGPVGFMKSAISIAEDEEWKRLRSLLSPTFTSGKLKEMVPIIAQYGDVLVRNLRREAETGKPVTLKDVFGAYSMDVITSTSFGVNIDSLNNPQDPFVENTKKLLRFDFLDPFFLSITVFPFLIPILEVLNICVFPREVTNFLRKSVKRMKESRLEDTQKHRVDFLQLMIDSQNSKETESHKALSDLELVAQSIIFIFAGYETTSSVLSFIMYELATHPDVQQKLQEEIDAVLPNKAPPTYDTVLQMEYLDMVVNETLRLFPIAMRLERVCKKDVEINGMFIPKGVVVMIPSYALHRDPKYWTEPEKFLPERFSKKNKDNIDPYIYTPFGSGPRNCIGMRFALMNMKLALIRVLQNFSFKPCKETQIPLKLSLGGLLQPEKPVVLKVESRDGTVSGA

[14] = Cmax in CD-1 mouse at 0.2 mg/kg, iv; format: ADME, organism-based; set-up: route intravenous, dose 0.2 mg/kg; conditions: in vivo
[15] = Intrinsic clearance in human liver microsomes; format: ADME, Microsome; conditions: read-out: CLH
[16] = Intrinsic clearance in mouse liver microsomes; format: ADME, Microsome; conditions: read-out: CLH
Cytochrome P450 1A2 = target: T3, Cytochrome P450 1A2 (Homo sapiens, UniProt P05177); test: Inhibition of CYP1A2 (unknown origin); format: ADME
T3 sequence (P05177 whole entry): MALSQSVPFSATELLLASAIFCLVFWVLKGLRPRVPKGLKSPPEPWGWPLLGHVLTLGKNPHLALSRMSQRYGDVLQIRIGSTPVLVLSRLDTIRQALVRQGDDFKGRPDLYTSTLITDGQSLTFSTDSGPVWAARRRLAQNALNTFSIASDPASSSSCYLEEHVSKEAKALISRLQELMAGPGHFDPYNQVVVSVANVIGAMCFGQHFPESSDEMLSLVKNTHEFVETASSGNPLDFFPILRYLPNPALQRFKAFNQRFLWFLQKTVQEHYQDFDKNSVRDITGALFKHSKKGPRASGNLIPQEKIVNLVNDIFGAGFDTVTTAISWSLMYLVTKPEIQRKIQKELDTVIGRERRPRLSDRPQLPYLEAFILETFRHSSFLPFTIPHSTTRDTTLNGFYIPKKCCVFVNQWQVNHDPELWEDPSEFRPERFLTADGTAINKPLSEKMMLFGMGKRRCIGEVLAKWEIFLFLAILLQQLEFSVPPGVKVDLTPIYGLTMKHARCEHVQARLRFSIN

[17] = Clearance in CD-1 mouse at 0.5 mg/kg, po or 0.2 mg/kg, iv; format: ADME, organism-based; conditions: in vivo
[18] = target: Voltage-gated inwardly rectifying potassium channel KCNH2 (Homo sapiens, UniProt Q12809); test: Inhibition of human ERG by patch clamp assay
Chain of Voltage-gated inwardly rectifying potassium channel KCNH2 (Q12809 whole entry): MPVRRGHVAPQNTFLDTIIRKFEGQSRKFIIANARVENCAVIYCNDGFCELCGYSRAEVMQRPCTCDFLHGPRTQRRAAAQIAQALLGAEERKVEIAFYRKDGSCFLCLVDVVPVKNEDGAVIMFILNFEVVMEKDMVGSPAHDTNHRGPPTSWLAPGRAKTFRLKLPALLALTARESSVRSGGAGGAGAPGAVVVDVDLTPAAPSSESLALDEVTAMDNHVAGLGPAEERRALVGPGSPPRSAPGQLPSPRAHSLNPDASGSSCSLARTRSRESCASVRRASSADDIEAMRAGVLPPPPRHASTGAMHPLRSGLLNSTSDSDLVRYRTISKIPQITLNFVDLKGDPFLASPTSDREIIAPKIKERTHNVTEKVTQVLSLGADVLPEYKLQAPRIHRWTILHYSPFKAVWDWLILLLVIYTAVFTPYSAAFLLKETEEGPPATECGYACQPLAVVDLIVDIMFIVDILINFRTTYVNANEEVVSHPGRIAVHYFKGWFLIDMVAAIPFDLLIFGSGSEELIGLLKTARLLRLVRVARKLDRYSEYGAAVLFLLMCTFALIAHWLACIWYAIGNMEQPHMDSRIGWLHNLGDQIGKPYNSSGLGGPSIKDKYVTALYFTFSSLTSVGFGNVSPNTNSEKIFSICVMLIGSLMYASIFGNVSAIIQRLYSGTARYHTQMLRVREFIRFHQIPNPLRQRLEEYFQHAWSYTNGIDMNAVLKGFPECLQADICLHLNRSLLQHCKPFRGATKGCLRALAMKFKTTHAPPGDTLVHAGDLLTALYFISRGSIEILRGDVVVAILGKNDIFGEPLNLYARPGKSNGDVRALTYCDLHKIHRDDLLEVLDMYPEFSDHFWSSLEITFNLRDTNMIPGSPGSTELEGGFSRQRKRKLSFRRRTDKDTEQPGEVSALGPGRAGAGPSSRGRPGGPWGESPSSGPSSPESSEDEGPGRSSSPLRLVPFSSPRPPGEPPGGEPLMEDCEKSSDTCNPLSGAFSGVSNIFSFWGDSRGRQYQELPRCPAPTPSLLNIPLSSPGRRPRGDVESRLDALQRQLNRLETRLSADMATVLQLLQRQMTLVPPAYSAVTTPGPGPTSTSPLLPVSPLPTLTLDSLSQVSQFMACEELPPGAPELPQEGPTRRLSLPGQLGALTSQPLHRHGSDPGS

Cytochrome P450 2C19 = Cytochrome P450 2C19 (Homo sapiens, UniProt P33261); test: Inhibition of CYP2C19 (unknown origin); format: ADME
Chain of Cytochrome P450 2C19 (P33261 whole entry): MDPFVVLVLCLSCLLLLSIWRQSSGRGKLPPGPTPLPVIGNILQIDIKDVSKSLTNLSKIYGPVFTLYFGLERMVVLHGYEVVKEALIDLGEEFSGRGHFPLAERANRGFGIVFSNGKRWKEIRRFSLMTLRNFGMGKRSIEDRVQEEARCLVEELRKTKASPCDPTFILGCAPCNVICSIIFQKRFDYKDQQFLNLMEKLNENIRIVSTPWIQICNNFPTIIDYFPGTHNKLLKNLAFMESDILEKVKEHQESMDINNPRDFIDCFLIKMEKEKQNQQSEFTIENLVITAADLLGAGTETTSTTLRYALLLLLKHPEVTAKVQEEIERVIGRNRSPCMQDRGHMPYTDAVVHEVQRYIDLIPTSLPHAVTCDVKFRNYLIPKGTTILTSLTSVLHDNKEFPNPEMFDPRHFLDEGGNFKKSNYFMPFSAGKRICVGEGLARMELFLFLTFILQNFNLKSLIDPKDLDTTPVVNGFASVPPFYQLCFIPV

[19] = Oral bioavailability in CD-1 mouse at 0.5 mg/kg; format: ADME, organism-based; conditions: in vivo
[20] = Cmax in CD-1 mouse at 0.5 mg/kg, po; format: ADME, organism-based; set-up: route oral, dose 0.5 mg/kg; conditions: in vivo
Cytochrome P450 2C9 = Cytochrome P450 2C9 (Homo sapiens, UniProt P11712); test: Inhibition of CYP2C9 (unknown origin); format: ADME
Chain of Cytochrome P450 2C9 (P11712 whole entry): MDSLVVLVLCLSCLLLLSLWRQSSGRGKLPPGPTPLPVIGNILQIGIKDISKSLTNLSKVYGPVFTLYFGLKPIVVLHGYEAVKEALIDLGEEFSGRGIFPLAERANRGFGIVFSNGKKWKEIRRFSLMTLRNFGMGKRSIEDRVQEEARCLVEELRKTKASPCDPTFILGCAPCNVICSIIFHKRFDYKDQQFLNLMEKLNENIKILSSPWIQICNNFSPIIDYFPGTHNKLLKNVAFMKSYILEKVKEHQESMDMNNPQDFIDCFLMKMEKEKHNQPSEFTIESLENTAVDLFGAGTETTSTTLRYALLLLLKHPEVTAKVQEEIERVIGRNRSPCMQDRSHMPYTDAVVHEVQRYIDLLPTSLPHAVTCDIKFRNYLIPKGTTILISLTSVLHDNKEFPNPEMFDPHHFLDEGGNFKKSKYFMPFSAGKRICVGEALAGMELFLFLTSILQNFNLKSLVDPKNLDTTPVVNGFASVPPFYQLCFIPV

## Cn1cc(-c2ccc(F)c(C(F)(F)F)c2)nc1C1CCN(c2ncnc(N)c2-c2ccc(F)cc2)CC1
[1]
  IC50: 0.004 µM
[2]
  IC50: 0.04 µM
[3]
  solubility thermodynamic: < 1 µg/mL
Cytochrome P450 2D6
  IC50: > 20 µM
[4]
  fraction unbound: 0.0003
[5]
  fraction unbound: 0.0008
[6]
  Papp A→B: 1.9 ×10⁻⁶ cm/s
Cytochrome P450 2B6
  IC50: 6.5 µM
[7]
  half-life: 4.68 h
[8]
  efflux ratio: 1.3
[9]
  solubility thermodynamic: < 1 µg/mL
[10]
  IC50: 2.2 µM
Cytochrome P450 2C8
  IC50: > 20 µM
[11]
  AUC: 557 ng·h/mL
[12]
  AUC: 1350 ng·h/mL
[13]
  Vd: 2.16 L/kg
Cytochrome P450 3A4
  IC50: > 20 µM
[14]
  Cmax: 597 ng/mL
[15]
  microsomal CLint: 23 µL/min/mg
[16]
  microsomal CLint: 48 µL/min/mg
Cytochrome P450 1A2
  IC50: > 20 µM
[17]
  CL: 12.3 mL/min/kg
[18]
  IC50: 1.8 µM
Cytochrome P450 2C19
  IC50: > 20 µM
[19]
  F: 41%
[20]
  Cmax: 72.1 ng/mL
Cytochrome P450 2C9
  IC50: > 20 µM
